Data taken from patent publication US6855730B2, “3-methylidenyl-2-indolinone modulators of protein kinase” (Sugen, Inc., priority 1998, dated 2005).

Assays:
PDGFR-β = biological target: T1, PDGFR-β (Homo sapiens, UniProt P09619); assay: Biochemical PDGFR assay (ELISA, PDGFR-β expressing NIH 3T3 cell lysate); settings: read-out: bio PDGF IC50
T1 construct: host or cells: NIH 3T3
Description: This assay measures the in vitro kinase activity of PDGFR using ELISA.
Unless otherwise noted, the preparation of working solution-of the following reagents is the same as that for the Biochemical EGFR assay, above. • 1. […] 28D4C10 monoclonal anti-PDGFR antibody (Biochemistry Lab, SUGEN, Inc.). • 3. PBS (Dulbecco's Phosphate-Buffered Saline, Gibco Catalog No. 450-1300EB) • 4. TBST Buffer. • 5. Blocking Buffer. • 6. PDGFR-β expressing NIH 3T3 cell lysate (Screening Lab, SUGEN, Inc.). • 7. TBS Buffer. • 8. TBS+10% DMSO. • 9. […] MnCl2. • 11. Kinase buffer phosphorylation mix.
• 12. NUNC 96-well V bottom polypropylene plates (Applied Scientific Cat. No. AS-72092). • 13. Ethylenediaminetetraacetic acid (EDTA). • 14. Rabbit polyclonal anti-phosphotyrosine serum (Biochemistry Lab, SUGEN, Inc.). • 15. Goat anti-rabbit IgG peroxidase conjugate (Biosource Cat. No. ALI0404). • 16. 2,2′-azino-bis(3-ethylbenzthiazoline-6-sulfonic acid) (ABTS, Sigma Cat. No. A-1888). • 17. Hydrogen peroxide 30% solution (Fisher Cat. No. H325). • 18. ABTS/H2O2. • 19. 0.2 M HCl.
Procedure • 1. Coat Corning 96 well ELISA plates with 0.5 μg 28D4C10 in 100 μl PBS per well, store overnight at 4° C. • 2. Remove unbound 28D4C10 from wells by inverting plate to remove liquid. Wash 1× with dH2O. Pat the plate on a paper towel to remove excess liquid. • 3. Add 150 μl of Blocking Buffer to each well. Incubate for 30 min. at room temperature with shaking. • 4. Wash plate 3× with deionized water, then once with TBST. Pat plate on a paper towel to remove excess liquid and bubbles. • 5. Dilute lysate in HNTG (10 μg lysate/100 μl HNTG) • 6. Add 100 μl of diluted lysate to each well. Shake at room temperature for 60 min. • 7. Wash plates as described in 4, above. • 8. Add 80 μl working kinase buffer mix to ELISA plate containing captured PDGFR. • 9. Dilute test compound 1:10 in TBS in 96-well polypropylene plates (i.e., 10 μl compound+90 μl TBS). • 10. Add 10 μl diluted test compound to ELISA plate. […] Incubate for 30 minutes while shaking at room temperature. • 12. Add 10 μl ATP directly to all wells except negative control well (final well volume should be approximately 100 μl with 20 μM ATP in each well.) Incubate 30 minutes while shaking. • 13. After 30 minutes, stop reaction by adding 10 μl of 200 mM EDTA (pH 8.0) to each well. • 14. Wash 4× with deionized water, twice with TBST. • 15. Add 100 μl anti-phosphotyrosine (1:3000 dilution in TBST) per well. Incubate 30-45 min. at room temperature, with shaking. • 16. Wash as described in 4, above. • 17. Add 100 μl Biosource Goat anti-rabbit IgG peroxidase conjugate (1:2000 dilution in TBST) to each well. Incubate 30 min. at room temperature, with shaking. • 18. Wash as described in 4, above. • 19. Add 100 μl of ABTS/H2O2 solution to each well. • 20. Incubate 10 to 30 minutes with shaking. Remove any bubbles. • 21. If necessary stop reaction with the addition of 100 μl 0.2 M HCl per well. • 22. Read assay on Dynatech MR7000 ELISA reader: test filter: 410 nM, reference filter: 630 nM.

EGFR = EGFR (Homo sapiens, UniProt P00533); assay: Biochemical EGFR assay (ELISA, A431 cell lysate); design: A431 cell lysate (Screening Lab, SUGEN, Inc.); host or cells: A431; settings: read-out: bio EGFr IC50
Sequence of EGFR (P00533 25-1210): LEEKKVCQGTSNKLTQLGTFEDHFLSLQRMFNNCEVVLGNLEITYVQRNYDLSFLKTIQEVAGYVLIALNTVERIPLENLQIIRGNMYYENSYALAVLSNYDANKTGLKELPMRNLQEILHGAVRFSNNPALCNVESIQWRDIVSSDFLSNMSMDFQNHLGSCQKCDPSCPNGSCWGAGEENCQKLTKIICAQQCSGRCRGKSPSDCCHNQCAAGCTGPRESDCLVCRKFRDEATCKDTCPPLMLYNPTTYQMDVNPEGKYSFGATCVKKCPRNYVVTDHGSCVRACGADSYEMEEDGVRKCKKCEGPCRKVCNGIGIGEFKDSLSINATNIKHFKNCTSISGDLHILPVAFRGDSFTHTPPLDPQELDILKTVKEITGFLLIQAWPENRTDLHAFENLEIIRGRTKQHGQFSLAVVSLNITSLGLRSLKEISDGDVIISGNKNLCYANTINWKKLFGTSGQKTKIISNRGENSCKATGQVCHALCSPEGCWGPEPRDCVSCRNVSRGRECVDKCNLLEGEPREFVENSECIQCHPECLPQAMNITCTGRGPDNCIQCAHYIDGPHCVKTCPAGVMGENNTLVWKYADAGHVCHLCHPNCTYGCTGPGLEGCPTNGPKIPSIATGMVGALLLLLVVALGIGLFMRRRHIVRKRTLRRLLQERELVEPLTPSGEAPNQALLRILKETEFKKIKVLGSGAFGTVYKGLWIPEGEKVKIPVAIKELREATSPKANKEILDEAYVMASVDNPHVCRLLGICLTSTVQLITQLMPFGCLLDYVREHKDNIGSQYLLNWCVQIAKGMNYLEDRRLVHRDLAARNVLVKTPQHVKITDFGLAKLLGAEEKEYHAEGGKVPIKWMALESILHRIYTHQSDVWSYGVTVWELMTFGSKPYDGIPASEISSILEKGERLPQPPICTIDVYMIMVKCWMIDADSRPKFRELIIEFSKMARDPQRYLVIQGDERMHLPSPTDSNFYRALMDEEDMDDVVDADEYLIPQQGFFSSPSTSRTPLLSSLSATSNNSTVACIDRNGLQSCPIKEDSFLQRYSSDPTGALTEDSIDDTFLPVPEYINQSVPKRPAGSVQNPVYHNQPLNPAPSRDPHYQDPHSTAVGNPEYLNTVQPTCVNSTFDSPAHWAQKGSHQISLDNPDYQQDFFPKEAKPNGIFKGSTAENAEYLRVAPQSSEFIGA
Protocol: This assay measures the in vitro kinase activity of EGFR using ELISA.
Materials and Reagents • 1. […] SUMO1 monoclonal anti-EGFR antibody (Biochemistry Lab, SUGEN, Inc.). • 3. PBS (Dulbecco's Phosphate-Buffered Saline, Gibco Catalog No. 450-1300EB). • 4. TBST Buffer
• 6. A431 cell lysate (Screening Lab, SUGEN, Inc.) • 7. TBS Buffer:
Prepare a 1.0 mM solution in dH2O. This reagent should be made up immediately prior to use and kept on ice. • 10. MnCl2.
Prepare a 1.0 M stock solution in dH2O. • 11. ATP/MnCl2 phosphorylation mix
This reagent should be prepared immediately before use and kept on ice. • 12. NUNC 96-well V bottom polypropylene plates (Applied Scientific Cat. No. AS-72092). • 13. Ethylenediaminetetraacetic acid (EDTA)
Prepare 200 mM working solution in dH2O. Adjust to pH 8.0 with 10 N NaOH. • 14. Rabbit polyclonal anti-phosphotyrosine serum (Biochemistry Lab, SUGEN, Inc.) • 15. Goat anti-rabbit IgG peroxidase conjugate (Biosource Cat. No. ALI0404) • 16. ABTS (2,2′-azino-bis(3-ethylbenzthiazoline-6-sulfonic acid), Sigma Cat. No. A-1888).
Mix first two ingredients in about 900 ml dH2O, adjust pH to 4.0 with phosphoric acid. Add ABTS, cover, let sit about 0.5 hr., filter. The solution should be kept in the dark at 4° C. until ready to use. • 17. Hydrogen peroxide 30% solution (Fisher Cat. No. H325) • 18. ABTS/H2O2 • Mix 15 ml ABTS solution and 2.0 μl H2O2. Prepare 5 minutes before use. • 19. 0.2 M HCl
Procedure • 1. Coat Corning 96 well ELISA plates with 0.5 μg SUMO1 in 100 μl PBS per well, store overnight at 4° C. • 2. Remove unbound SUMO1 from wells by inverting plate to remove liquid., Wash 1× with dH2O. Pat the plate on a paper towel to remove excess liquid. • 3. Add 150 μl of Blocking Buffer to each well. Incubate for 30 min. at room temperature with shaking. • 4. Wash plate 3× with deionized water, then once with TBST. Pat plate on a paper towel to remove excess liquid and bubbles. • 5. Dilute lysate in PBS (7 μg lysate/100 μl PBS). • 6. Add 100 μl of diluted lysate to each well. Shake at room temperature for 60 min. • 7. Wash plates as described in 4, above. • 8. Add 120 μl TBS to ELISA plate containing captured EGFR. • 9. Dilute test compound 1:10 in TBS in 96-well polypropylene plates (i.e. 10 μl compound+90 μl TBS). • 10. Add 13.5 μl diluted test compound to ELISA plate. […] Incubate for 30 minutes while shaking at room temperature. • 12. […] After 5 minutes, stop reaction by adding 16.5 μl of 200 mM EDTA (pH 8.0) to each well, shaking continuously. After the EDTA has been added, shake for 1 min. • 14. Wash 4× with deionized water, twice with TBST. • 15. Add 100 μl anti-phosphotyrosine (1:3000 dilution in TBST) per well. Incubate 30-45 min. at room temperature, with shaking. • 16. Wash as described in 4, above. • 17. Add 100 μl Biosource Goat anti-rabbit IgG peroxidase conjugate (1:2000 dilution in TBST) to each well. Incubate 30 min. at room temperature, with shaking. • 18. Wash as described in 4, above. • 19. Add 100 μl of ABTS/H2O2 solution to each well. • 20. Incubate 5 to 10 minutes with shaking. Remove any bubbles. • 21. If necessary stop reaction with the addition of 100 μl 1 0.2 M HCl per well. • 22. Read assay on Dynatech MR7000 ELISA reader. Test Filter: 410 nM Reference Filter: 630 Nm.

T1 sequence (P09619 33-1106): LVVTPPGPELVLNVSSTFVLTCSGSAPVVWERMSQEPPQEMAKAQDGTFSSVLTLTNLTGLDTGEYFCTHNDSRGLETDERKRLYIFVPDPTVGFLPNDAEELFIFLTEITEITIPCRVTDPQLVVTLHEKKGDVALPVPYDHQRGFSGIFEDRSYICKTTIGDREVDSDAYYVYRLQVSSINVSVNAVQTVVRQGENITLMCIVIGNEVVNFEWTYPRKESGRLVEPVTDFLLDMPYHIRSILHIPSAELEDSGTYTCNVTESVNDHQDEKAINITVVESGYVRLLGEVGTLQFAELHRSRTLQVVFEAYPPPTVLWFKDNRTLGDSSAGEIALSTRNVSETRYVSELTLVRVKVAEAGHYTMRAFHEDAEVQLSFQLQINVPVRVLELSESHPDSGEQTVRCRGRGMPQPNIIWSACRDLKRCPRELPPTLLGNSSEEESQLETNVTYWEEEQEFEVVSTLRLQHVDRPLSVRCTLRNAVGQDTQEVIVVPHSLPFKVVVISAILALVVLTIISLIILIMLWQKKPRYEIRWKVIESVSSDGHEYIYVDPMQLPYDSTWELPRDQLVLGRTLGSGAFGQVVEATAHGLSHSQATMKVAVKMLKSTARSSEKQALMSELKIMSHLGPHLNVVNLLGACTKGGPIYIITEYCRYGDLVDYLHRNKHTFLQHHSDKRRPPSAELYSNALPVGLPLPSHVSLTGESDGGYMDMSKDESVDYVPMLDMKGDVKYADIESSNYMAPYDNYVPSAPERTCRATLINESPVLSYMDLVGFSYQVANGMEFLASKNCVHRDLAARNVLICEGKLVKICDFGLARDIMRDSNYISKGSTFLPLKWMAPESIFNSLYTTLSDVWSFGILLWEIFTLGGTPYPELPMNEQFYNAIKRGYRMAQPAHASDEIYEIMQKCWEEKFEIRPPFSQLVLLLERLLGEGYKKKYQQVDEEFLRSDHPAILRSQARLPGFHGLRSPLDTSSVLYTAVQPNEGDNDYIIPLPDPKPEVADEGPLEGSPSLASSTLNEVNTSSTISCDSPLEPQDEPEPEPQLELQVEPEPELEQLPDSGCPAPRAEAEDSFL

| SMILES | IC50 (PDGFR-β) [µM] | IC50 (EGFR) [µM] |
| --- | --- | --- |
| CCOC(=O)c1c(C)[nH]c(/C=C2\C(=O)Nc3ccc(C(=O)O)cc32)c1CCCN1CCN(C)CC1 [Compound 129, 3-{4-Ethoxycarbonyl-5-methyl-3-(3-(4-methyl-piperazin-1-yl)-propyl]-1H-pyrrol-2-ylmethylene)-2-oxo-2,3-dihydro-1H-indole-5-carboxylic acid] | 31.7 | – |
| CCOC(=O)c1c(C)[nH]c(/C=C2\C(=O)Nc3ccc(C(=O)O)cc32)c1CCCN1CCOCC1 [Example 125, 3-[4-Ethoxycarbonyl-5-methyl-3-(3-morpholin-4-ylpropyl)-1H-pyrrol-2-ylmethylene]-2-oxo-2,3-dihydro-1H-indole-5-carboxylic acid] | 5.73 | – |
| CCOC(=O)c1c(C)[nH]c(/C=C2\C(=O)Nc3ccc(OC)cc32)c1CCCN1CCCC1 [Example 127, 5-(5-Methoxy-2-oxo-1,2-dihydroindol-3-ylidenemethyl)-2-methyl-4-(3-pyrrolidin-1-ylpropyl)-1H-pyrrole-3-carboxylic acid ethyl ester] | 0.96 | – |
| CCOC(=O)c1c(C)[nH]c(/C=C2\C(=O)Nc3ccc(C(=O)O)cc32)c1CCCN1CCCC1 [Example 128, 3-[4-Ethoxycarbonyl-5-methyl-3-(3-pyrrolidin-1-ylpropyl)-1H-pyrrol-2-ylmethylene]-2oxo-2,3-dihydro-1H-indole-5-carboxylic acid] | 17.1 | – |
| CCOC(=O)c1c(C)[nH]c(/C=C2\C(=O)Nc3ccc(C(=O)O)cc32)c1CCCN(C)C [Example 134, 3-[3-(3-Dimethylaminopropyl)-4-ethoxycarbonyl-5-methyl-1H-pyrrol-2-ylmethylene]-2-oxo-2,3-dihydro-1H-indole-5-carboxylic acid] | 4.88 | – |
| CCOC(=O)c1c(C)[nH]c(/C=C2\C(=O)Nc3cccc(CCO)c32)c1CCCN(C)C [Example 135, 4-(3-Dimethylaminopropyl)-5-[4-(2-hydroxyethyl)-2-oxo-1,2-dihydroindol-3-ylidenemethyl]-2-methyl-1H-pyrrole-3-carboxylic acid ethyl ester] | 0.5 | 0.19 |
| O=C(O)CCc1c(C=C2C(=O)Nc3cc(N4CCOCC4)ccc32)[nH]c2c1CCCC2 [Example 209, 3-[2-(6-Morpholin-4-yl-2-oxo-1,2-dihydroindol-3-ylidenemethyl)-4,5,6,7-tetrahydro-1H-indol-3-yl]-propionic acid] | 84.6 | > 100 |
